The record followed here is patent publication US20250179000A1 (Sanford Burnham Prebys Medical Discovery Institute, priority 2021, published 2025).

Assay type in all cases: cell-based
For one experiment, the target named is T1, Rat mGlu3 (Rattus norvegicus, UniProt P31422).
T1 construct: expressed in transfected cells; host or cells: HEK-293 co-expressing GIRK channels
Nature of the experiment: mGlu receptor in vitro assay (thallium flux through GIRK channels / calcium assay), rat mGlu3. The following applies: PAM potency with EC20 glutamate. An outline of the steps:
(§1)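 HEK-293 cells co-expressing rat mGlu2 or mGlu3 and GIRK, dye-loaded with FluoZin2-AM, compound added about 2.5 min before thallium buffer with EC20 glutamate; potency from the 5-15 s fluorescence slope, 10-point 4-parameter fit. Calcium assay at mGlu3 used TREx293 mGlu3 Gα15 cells induced with tetracycline 20 ng/mL for 20 h.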

For another experiment, the target named is Human mGlu3 (Homo sapiens, UniProt Q14832). Nature of the experiment: mGlu receptor in vitro assay, human mGlu3. How it is done:
Human Embryonic Kidney (HEK-293) cell lines co-expressing rat mGlu receptors 2, 3, 4, 6, 7 or 8 and G protein-coupled inwardly-rectifying potassium (GIRK) channels were grown in Growth Media containing 45% DMEM, 45% F-12, 10% FBS, 20 mM HEPES, 2 mM L-glutamine, antibiotic/antimycotic, non-essential amino acids, 700 μg/mL G418, and 0.6 μg/ml puromycin at 37° C. in the presence of 5% CO2. […] All cell culture reagents were purchased from Invitrogen Corp. (Carlsbad, CA) unless otherwise noted. Calcium assays were used to assess activity of compounds at mGlu1 and mGlu5, as previously described in Engers et al (J. Med. Chem. 2009, 52, 4115-4118). Calcium assays at mGlu3 were performed as described for mGlu5 with the exception that TREx293 mGlu3 Gα15 cells were treated with tetracycline at 20 ng/mL for 20 h prior to assay.
Briefly, cells were plated into 384-well, black-walled, clear-bottomed poly-D-lysine-coated plates at a density of 15,000 cells/20 μL/well in DMEM containing 10% dialyzed FBS, 20 mM HEPES, and 100 units/mL penicillin/streptomycin (assay media). Plated cells were incubated overnight at 37° C. in the presence of 5% CO2. The following day, the medium was exchanged from the cells to assay buffer [Hanks' balanced salt solution (Invitrogen) containing 20 mM HEPES, pH 7.3] using an ELX405 microplate washer (BioTek), leaving 20 μL/well, followed by the addition of 20 μL/well FluoZin2-AM (330 nM final concentration) indicator dye (Invitrogen; prepared as a stock in DMSO and mixed in a 1:1 ratio with Pluronic acid F-127) in assay buffer. Cells were incubated for 1 h at room temperature, and the dye exchanged to assay buffer using an ELX405, leaving 20 μL/well. Test compounds were diluted to 2 times their final desired concentration in assay buffer (0.3% DMSO final concentration). Agonists were diluted in thallium buffer [125 mM sodium bicarbonate (added fresh the morning of the experiment), 1 mM magnesium sulfate, 1.8 mM calcium sulfate, 5 mM glucose, 12 mM thallium sulfate, and 10 mM HEPES, pH 7.3] at 5 times the final concentration to be assayed. Cell plates and compound plates were loaded onto a kinetic imaging plate reader (FDSS 6000 or 7000; Hamamatsu Corporation, Bridgewater, NJ). Appropriate baseline readings were taken (10 images at 1 Hz; excitation, 470±20 nm; emission, 540±30 nm) and test compounds were added in a 20 μL volume and incubated for approximately 2.5 min before the addition of 10 μL of thallium buffer with or without agonist. After the addition of agonist, data were collected for approximately an additional 2.5 min. Data were analyzed using Excel (Microsoft Corp, Redmond, WA). The slope of the fluorescence increase beginning 5 s after thallium/agonist addition and ending 15 s after thallium/agonist addition was calculated, corrected to vehicle and maximal agonist control slope values, and plotted in using either XLfit (ID Business Solutions Ltd) or Prism software (GraphPad Software, San Diego, CA) to generate concentration-response curves. Potencies were calculated from fits using a four-point parameter logistic equation. For concentration-response curve experiments, compounds were serially diluted 1:3 into 10-point concentration response curves and were transferred to daughter plates using an Echo acoustic plate reformatter (Labcyte, Sunnyvale, CA). Test compounds were applied and followed by EC20 concentrations of glutamate.

Another experiment deals with Human mGlu2 (Homo sapiens, UniProt Q14416). Nature of the experiment: mGlu receptor in vitro assay, human mGlu2.
Human mGlu2, sequence (Q14416 19-872): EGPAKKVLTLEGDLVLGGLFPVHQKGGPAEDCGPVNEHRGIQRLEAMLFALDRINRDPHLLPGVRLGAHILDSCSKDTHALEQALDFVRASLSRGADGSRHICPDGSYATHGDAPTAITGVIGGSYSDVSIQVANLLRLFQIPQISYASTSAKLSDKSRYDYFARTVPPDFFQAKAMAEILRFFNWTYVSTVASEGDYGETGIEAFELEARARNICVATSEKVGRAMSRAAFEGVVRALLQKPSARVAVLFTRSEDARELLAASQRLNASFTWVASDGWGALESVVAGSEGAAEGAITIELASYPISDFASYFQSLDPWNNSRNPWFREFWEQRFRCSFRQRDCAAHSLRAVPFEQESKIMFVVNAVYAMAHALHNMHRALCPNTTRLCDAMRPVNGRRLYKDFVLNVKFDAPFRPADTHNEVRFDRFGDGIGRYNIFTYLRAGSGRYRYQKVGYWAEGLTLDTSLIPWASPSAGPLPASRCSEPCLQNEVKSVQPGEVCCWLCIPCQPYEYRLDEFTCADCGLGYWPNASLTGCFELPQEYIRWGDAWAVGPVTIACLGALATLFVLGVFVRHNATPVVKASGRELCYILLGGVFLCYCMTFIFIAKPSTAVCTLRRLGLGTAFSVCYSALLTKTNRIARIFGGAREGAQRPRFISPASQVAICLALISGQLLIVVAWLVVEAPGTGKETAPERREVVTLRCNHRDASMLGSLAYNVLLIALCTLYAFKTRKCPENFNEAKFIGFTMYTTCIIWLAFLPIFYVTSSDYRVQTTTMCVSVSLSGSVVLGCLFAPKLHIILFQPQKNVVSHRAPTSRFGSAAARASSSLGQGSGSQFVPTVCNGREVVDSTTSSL
For the next experiment, the target named is T2, Rat mGlu2 (Rattus norvegicus, UniProt P31421).
T2 construct: expressed in transfected cells; host or cells: HEK-293 co-expressing GIRK channels
T2 sequence (P31421 19-872): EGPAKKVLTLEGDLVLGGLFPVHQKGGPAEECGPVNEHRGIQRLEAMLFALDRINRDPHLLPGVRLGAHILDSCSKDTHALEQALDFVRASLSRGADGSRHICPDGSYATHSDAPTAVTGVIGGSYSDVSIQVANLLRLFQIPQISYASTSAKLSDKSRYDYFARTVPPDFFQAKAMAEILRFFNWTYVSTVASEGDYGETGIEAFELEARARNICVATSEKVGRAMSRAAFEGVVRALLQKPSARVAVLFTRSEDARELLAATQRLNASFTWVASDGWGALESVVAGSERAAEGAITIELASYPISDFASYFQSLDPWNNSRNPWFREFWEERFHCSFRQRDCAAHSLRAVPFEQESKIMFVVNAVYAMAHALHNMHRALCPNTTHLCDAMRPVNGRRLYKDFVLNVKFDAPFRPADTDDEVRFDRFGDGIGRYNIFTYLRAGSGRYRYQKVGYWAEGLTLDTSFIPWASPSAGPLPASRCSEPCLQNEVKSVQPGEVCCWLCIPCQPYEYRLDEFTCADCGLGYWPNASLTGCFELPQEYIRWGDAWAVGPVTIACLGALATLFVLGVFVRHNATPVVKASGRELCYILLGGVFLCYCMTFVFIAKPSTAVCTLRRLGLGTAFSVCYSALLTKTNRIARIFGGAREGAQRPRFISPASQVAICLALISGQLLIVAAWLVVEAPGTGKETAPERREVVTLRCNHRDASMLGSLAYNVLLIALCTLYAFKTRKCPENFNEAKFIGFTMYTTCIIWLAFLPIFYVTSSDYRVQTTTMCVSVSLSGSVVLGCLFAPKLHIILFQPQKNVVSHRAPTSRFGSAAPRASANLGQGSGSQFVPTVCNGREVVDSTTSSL
The experiment in a line: mGlu receptor in vitro assay, thallium flux through GIRK channels, rat mGlu2. Conditions: PAM potency with EC20 glutamate. An outline of the steps: as §1

T1 sequence (P31422 23-879): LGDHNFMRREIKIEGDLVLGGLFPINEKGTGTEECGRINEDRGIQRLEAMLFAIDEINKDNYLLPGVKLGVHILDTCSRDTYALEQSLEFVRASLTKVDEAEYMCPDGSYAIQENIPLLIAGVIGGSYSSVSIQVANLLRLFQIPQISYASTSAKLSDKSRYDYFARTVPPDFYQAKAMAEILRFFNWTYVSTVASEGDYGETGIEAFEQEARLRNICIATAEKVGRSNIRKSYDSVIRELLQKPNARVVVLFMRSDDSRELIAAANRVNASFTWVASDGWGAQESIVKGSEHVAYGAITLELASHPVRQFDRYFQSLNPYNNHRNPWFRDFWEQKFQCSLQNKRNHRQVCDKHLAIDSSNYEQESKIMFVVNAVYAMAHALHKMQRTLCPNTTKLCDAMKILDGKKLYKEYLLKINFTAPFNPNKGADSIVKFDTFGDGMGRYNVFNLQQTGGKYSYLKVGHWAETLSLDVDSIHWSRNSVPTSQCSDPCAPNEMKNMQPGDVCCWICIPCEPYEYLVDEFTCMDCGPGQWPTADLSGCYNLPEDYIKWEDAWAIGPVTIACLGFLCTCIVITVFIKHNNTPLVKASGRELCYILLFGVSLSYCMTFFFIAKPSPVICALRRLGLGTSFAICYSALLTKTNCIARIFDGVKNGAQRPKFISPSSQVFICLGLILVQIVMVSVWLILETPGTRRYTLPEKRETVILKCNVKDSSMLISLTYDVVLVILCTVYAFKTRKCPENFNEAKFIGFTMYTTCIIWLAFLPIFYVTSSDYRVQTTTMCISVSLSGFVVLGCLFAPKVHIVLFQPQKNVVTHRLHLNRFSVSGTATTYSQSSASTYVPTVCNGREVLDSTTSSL
Human mGlu3, sequence (Q14832 23-879): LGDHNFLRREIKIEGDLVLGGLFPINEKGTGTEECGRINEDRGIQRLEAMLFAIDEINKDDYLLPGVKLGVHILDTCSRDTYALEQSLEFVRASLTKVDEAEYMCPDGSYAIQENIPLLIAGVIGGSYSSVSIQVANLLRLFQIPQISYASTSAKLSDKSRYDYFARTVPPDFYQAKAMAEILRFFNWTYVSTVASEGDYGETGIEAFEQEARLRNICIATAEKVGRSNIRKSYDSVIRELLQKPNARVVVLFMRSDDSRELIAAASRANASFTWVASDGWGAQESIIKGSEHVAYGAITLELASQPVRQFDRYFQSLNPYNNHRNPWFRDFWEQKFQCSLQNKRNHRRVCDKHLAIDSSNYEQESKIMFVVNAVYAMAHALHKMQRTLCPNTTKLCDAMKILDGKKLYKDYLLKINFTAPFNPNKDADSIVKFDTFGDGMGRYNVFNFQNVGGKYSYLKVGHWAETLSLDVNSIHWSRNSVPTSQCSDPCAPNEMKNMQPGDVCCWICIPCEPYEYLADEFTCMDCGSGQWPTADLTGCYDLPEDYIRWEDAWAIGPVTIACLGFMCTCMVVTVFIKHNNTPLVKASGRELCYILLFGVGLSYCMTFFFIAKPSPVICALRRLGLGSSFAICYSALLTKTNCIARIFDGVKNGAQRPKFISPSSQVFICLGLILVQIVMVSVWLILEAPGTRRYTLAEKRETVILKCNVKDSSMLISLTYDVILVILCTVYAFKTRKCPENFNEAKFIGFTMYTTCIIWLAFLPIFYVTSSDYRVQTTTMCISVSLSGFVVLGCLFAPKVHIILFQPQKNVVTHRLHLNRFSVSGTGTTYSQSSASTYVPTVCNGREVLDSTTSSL

With `[2H]C([2H])(CCCC([2H])([2H])Oc1ccc(C(=O)CCC)c(O)c1C)Oc1ccc(C(=O)O)c(Cl)c1` [Example 53, 4-((5-(4-Butyryl-3-hydroxy-2-methylphenoxy)pentyl-1,1,5,5-d4)oxy)-2-chlorobenzoic acid], the EC50 at Rat mGlu3 was determined as 920 nM; on Human mGlu3 it was 708 nM; at Human mGlu2 it was 6 nM; at Rat mGlu2, 19 nM.
On the same counts, the results for `COc1ccc(C(=O)O)cc1OCCCCOc1ccc(C(=O)CC(C)(C)C)c(O)c1` [compound 132, 3-(4-(4-(3,3-Dimethylbutanoyl)-3-hydroxyphenoxy)butoxy)-4-methoxybenzoic acid] are 309 nM, 114 nM, 129 nM and 403 nM.
On the same counts, the results for `Cc1c(OCCCCOc2ccc(C(=O)O)c(F)c2)ccc(C(=O)CC(C)C)c1O` [compound 100, 2-Fluoro-4-{4-[3-hydroxy-2-methyl-4-(3-methylbutanoyl)phenoxy]butoxy}benzoic acid] are 732 nM, 773 nM, 15 nM and 79 nM.
On the same counts, the results for `CCCC(=O)c1ccc(OCCCCCOc2ccc(C(=O)O)c(F)c2)c(C)c1O` [Example 45, 4-[5-(4-Butanoyl-3-hydroxy-2-methylphenoxy)pentyloxy]-2-fluorobenzoic acid] are 1090 nM, 943 nM, 13 nM and 66 nM.
Turning to `Cc1c(OCc2nc(-c3cccc(C(=O)O)c3)no2)ccc(C(=O)CC(C)(C)C)c1O` [compound 133, 3-(5-((4-(3,3-Dimethylbutanoyl)-3-hydroxy-2-methylphenoxy)methyl)-1,2,4-oxadiazol-3-yl)benzoic acid], the half-maximal effective concentration (EC50) on Rat mGlu3 was 247 nM; at Human mGlu3 it was 79 nM; at Human mGlu2 it was 74 nM; on Rat mGlu2, 268 nM.
On the same counts, the results for `CCCC(=O)c1ccc(OCCCCCOc2ccc(C(=O)O)cc2Cl)c(C)c1O` [Example 50, 4-[5-(4-Butanoyl-3-hydroxy-2-methylphenoxy)pentyloxy]-3-chlorobenzoic acid] are above 10000 nM, above 10000 nM, 21 nM and 43 nM.
Regarding `COc1ccc(C(=O)O)cc1OCCSCCOc1ccc(C(=O)CC(C)(C)C)c(O)c1C` [Example 12, 3-(2-{2-[4-(3,3-Dimethylbutanoyl)-3-hydroxy-2-methylphenoxy]ethylthio}ethoxy)-4-methoxybenzoic acid], the concentration giving a half-maximal response (EC50) on Rat mGlu3 was found to be 70 nM; on Human mGlu3 it was 15 nM; at Human mGlu2, 5 nM; on Rat mGlu2, 23 nM.
Turning to `CCCC(=O)c1ccc(OCCOCCOc2cccc(C(=O)O)c2C)c(C)c1O` [Example 7, 3-(2-(2-(4-Butyryl-3-hydroxy-2-methylphenoxy)ethoxy)ethoxy)-2-methylbenzoic acid], the concentration for a half-maximal effect (EC50) at Rat mGlu3 is above 30000 nM; at Human mGlu3 it was above 10000 nM; on Human mGlu2, 116 nM; on Rat mGlu2 it was 158 nM.
Regarding `COc1ccc(C(=O)O)cc1OCC#CCOc1ccc(C(=O)CC(C)(C)C)c(O)c1C` [Example 10, 3-{4-[4-(3,3-Dimethylbutanoyl)-3-hydroxy-2-methylphenoxy]but-2-ynyloxy}-4-methoxybenzoic acid], the EC50 at Rat mGlu3 worked out at 39 nM; at Human mGlu3, 16 nM; on Human mGlu2 it was 15 nM; at Rat mGlu2, 92 nM.
Take `COc1ccc(C(=O)O)cc1OCCC(C)COc1ccc(C(=O)CC(C)(C)C)c(O)c1C` (stereo not shown) [Example 33, 3-{4-[4-(3,3-Dimethylbutanoyl)-3-hydroxy-2-methylphenoxy]-3-methylbutoxy}-4-methoxybenzoic acid]: the EC50 amounted to 197 nM on Rat mGlu3, 195 nM at Human mGlu3, 132 nM at Human mGlu2 and 217 nM on Rat mGlu2.
The like results for `CCCC(=O)c1ccc(OCC2(COc3cccc(C(=O)O)c3C)CC2)c(C)c1O` [Example 36, 3-({[(4-Butanoyl-3-hydroxy-2-methylphenoxy)methyl]cyclopropyl}methoxy)-2-methylbenzoic acid] were, in that order, above 30000 nM, above 30000 nM, 14 nM and 89 nM.
Consider `CCCC(=O)c1ccc(OCCOCCOc2ccc(C(=O)O)cc2OC)c(C)c1O` [Example 5, 4-(2-(2-(4-Butyryl-3-hydroxy-2-methylphenoxy)ethoxy)ethoxy)-3-methoxybenzoic acid], for which the concentration for a half-maximal effect (EC50) was above 10000 nM on Rat mGlu3, above 10000 nM on Human mGlu3, 26 nM on Human mGlu2 and 27 nM at Rat mGlu2.
Take `CCCC(=O)c1ccc(OCCCCCOc2cccc(C(=O)O)c2C)c(C)c1O` [Example 13]: the concentration giving a half-maximal response (EC50) on Rat mGlu3 is above 10000 nM; on Human mGlu3 it was above 10000 nM; on Human mGlu2 it was 52 nM; at Rat mGlu2 it was 114 nM.
Consider `COc1ccc(C(=O)O)cc1OCCCCOc1ccc(C(=O)c2ccc(F)cc2)c(O)c1C` [compound 65, 3-(4-(4-(4-Fluorobenzoyl)-3-hydroxy-2-methylphenoxy)butoxy)-4-methoxybenzoic acid], for which the EC50 amounted to 3030 nM on Rat mGlu3, 342 nM at Human mGlu3, 143 nM on Human mGlu2 and 1150 nM at Rat mGlu2.
Regarding `CCCC(=O)c1ccc(OCCOCCOc2ccc(C(=O)O)c(Cl)c2)c(C)c1O` [Example 41, 4-{2-[2-(4-Butanoyl-3-hydroxy-2-methylphenoxy)ethoxy]ethoxy}-2-chlorobenzoic acid], the concentration giving a half-maximal response (EC50) on Rat mGlu3 was 1000 nM; at Human mGlu3 it was 886 nM; on Human mGlu2, 8 nM; on Rat mGlu2, 15 nM.
In the case of `COc1ccc(C(=O)O)cc1OCCN(CCOc1ccc(C(=O)CC(C)(C)C)c(O)c1C)S(=O)(=O)c1ccc(C)cc1` [Example 31, 3-[2-({2-[4-(3,3-Dimethylbutanoyl)-3-hydroxy-2-methylphenoxy]ethyl}[(4-methylphenyl)sulfonyl]amino)ethoxy]-4-methoxybenzoic acid], the EC50 was above 30000 nM on Human mGlu3 and 373 nM on Human mGlu2.
In the case of `COc1c(C(=O)O)cccc1-c1cnc(COc2ccc3c(c2C)OC(C)(C)CC3=O)cn1` [compound 147, 2-Methoxy-3-(5-(((2,2,8-trimethyl-4-oxochroman-7-yl)oxy)methyl)pyrazin-2-yl)benzoic acid], the EC50 at Human mGlu3 and at Human mGlu2 was above 30000 nM throughout.
With `COc1c(C(=O)O)cccc1-c1cnc(COc2ccc(C(=O)CC(C)(C)C)c(O)c2C)nc1` [compound 159, 3-(2-((4-(3,3-Dimethylbutanoyl)-3-hydroxy-2-methylphenoxy)methyl)pyrimidin-5-yl)-2-methoxybenzoic acid], the EC50 on Human mGlu3 worked out at 85 nM; at Human mGlu2, 44 nM.
As for `COc1c(C(=O)O)cccc1-c1ccc(COc2ccc(C(=O)CC(C)(C)C)c(O)c2C)cn1` [compound 153, 3-(5-((4-(3,3-Dimethylbutanoyl)-3-hydroxy-2-methylphenoxy)methyl)pyridin-2-yl)-2-methoxybenzoic acid], the EC50 on Human mGlu3 came out at 133 nM; on Human mGlu2 it was 69 nM.
For the compound `COc1ccc(C(=O)O)c(-c2cnc(COc3ccc(C#CCO)c(C)c3C)cn2)c1` [compound 150], the 50% effective concentration (EC50) on Human mGlu3 is above 30000 nM; on Human mGlu2, above 10000 nM.

In general, EC50 refers to the concentration that produces a half-maximal response.
